The text below walks through data of patent US6602519B1, “Oxidized thymosin β4” (The University Court of the University of Glasgow, priority 1998, dated 2003).

The subject of assay [1] is carrageenan-induced footpad swelling. As to the kind of experiment: Carrageenan induced oedema test. It is filed as in vivo, BALB/c mice. The note with it: for reduction of carrageenan-induced oedema: 800 ng doses. The procedure:
Induction of Inflammatory Response to Carrageenin: Groups of mice were injected subcutaneously in one hind paw with 300 μg carrageenin mixed the thymosin β4, native or sulphoxide in a final volume of 50 μl. Control animals were injected with the same volume of saline. Footpad swelling was measured using a spring-dial calliper, and expressed as the difference in swelling between the carrageenin-injected paw and the uninjected, contralateral paw. The animals were injected intraperitoneally (i.p.) With the same dose of thymosin β4, native or sulphoxide and footpad measurements made at 6, 24, 48 and 72 hours.

The subject of a further assay is human neutrophils. As to the kind of experiment: Cell tracking assay (neutrophil locomotion). Type of assay: cell-based. Particulars: uniform concentration. The procedure: Neutrophils were obtained as described by Chettibi et al. [1993]. Briefly, whole blood was mixed with 1:10 v/v of 5% dextran and allowed to sediment at 37° C. for 1 hour. The leucocyte rich plasma was layered over Nycoprep 1.077 and centrifuged at 750 g for 15 minutes. Erythrocytes in the resulting pellet were removed by hypotonic lysis and neutrophils were washed twice with balanced salt solution (BSS). The cells were checked for viability by trypan blue exclusion (generally greater than 96% viable).
Automated cell-tracking migration chambers were made as previously described [Chettibi et al., 1993] and placed on the stage of an inverted phase-contrast microscope within a temperature controlled (37° C.) transparent box and locomotion observed by means of a video camera connected to a monochrome monitor and also to an Acorn A5000 computer with a Watford video digitiser programmed to capture and analyze one frame every 5 seconds. Data was obtained from a maximum of 80 selected cells and used to calculate instantaneous speed, the 2-dimensional diffusion coefficient and the locomotion persistence time, using the described procedure to eliminate the contribution of systematic drift [Chettibi et al., 1994].

In assay [2] the test system is fMLP-induced chemotaxis of human neutrophils. As to the kind of experiment: Chemotaxis assay (modified Boyden chamber). It is filed as cell-based. The note with it: for chemotactic activity of the substance itself: Boyden chamber; for inhibition of chemotaxis to fMLP: substance in upper chamber, fMLP in lower chamber. The procedure: Filters (Sartorius membrane filter 3 μm pore) were cut and glued to a modified iml syringe barrel. 300 μl of 2×10^6/ml neutrophils were added to 300 μl antagonist and 200 μl of the suspension was added to the upper chamber (syringe barrel). The lower chamber (a 5 ml beaker), contained 3.6 ml of agonist. After 45 minutes, the cells were fixed in 70% ethanol for 5 minutes. This procedure also removes the filter from the syringe barrel by dissolving the glue. The filters were placed in a multi-well dish and treated as follows: distilled water for 2 minutes, Harris haematoxylin 1 minute, distilled water 1 min, Scotts Tap water (1:1 0.7% sodium bicarbonate:4% Magnesium sulphate (v/v) for 5 minutes, 70% ethanol 3 mins, 95% ethanol 3 minutes and 80%:20% ethanol:butanol (v/v) 5 minutes. The filters were cleared in xylene for 5 minutes, mounted in DEPEX and examined under bright field illumination with a 40× objective. Five randomly selected fields were counted for each filter.

Assay [3] deals with Human umbilical vein endothelial cells (HUVEC). As to the kind of experiment: Scratch wound assay (endothelial sheet wound closure). It is filed as cell-based. The procedure: Scratch wound assay: Human umbilical vein endothelial cells (HUVEC) were grown to confluency in multiwell dishes (Corning) and a scratch made across the diameter of each well with a sterile pipette tip. The resulting wound (approx. 1 mm) was then measured before the addition of Tβ4 or Tβ4so and at 45 min intervals.

The subject of a further assay is G-actin. The note with it: high salt conditions; cited from earlier work.

“Also recorded” adds a separate entry of the source.

Turning to oxidised thymosin β4 [Tβ4so], the “suppression of footpad swelling” value in assay [1] (10 ng dose) was “ineffective”; in assay [1] (100 ng dose), “ineffective”; in assay [1] (administration 30 minutes prior to, during and 6 hours after carrageenan, evident after 6 h, sustained up to 24 hours) it was “significant suppression of swelling”. For the same substance, the “reduction of carrageenan-induced oedema” value in assay [1] was “significantly reduced”. Besides, the “dispersive locomotion of neutrophils” value in the assay on human neutrophils is on record as “dispersive at low concentrations”. In assay [2], the “chemotactic activity of the substance itself” value was “neither was chemotactic”. Also, the “potency of inhibition of chemotaxis relative to native Tβ4” value in assay [2] (oxidised versus native peptide) is “an order of magnitude more potent; also recorded: tenfold more inhibitory”. Moreover, the “inhibition of chemotaxis to fMLP” value in assay [2] was “both inhibited”. Also, the “wound healing (closure rate of scratch on endothelial monolayer)” value in assay [3] is recorded as “promotes would healing”. Moreover, in assay [3] (oxidised versus native peptide), the “potency in wound closure relative to native peptide” value is “at least an order of magnitude higher potency”. Also, the “concentration needed to inhibit actin polymerisation relative to thymosin β4” value in the assay on G-actin is 20 fold.
For the substance “thymosin β4 (SDKPDMAEIEKFDKSKLKKTETQEKNPLPSKETIEQEKQAGES; UniProt P62328 2-44, looked up) [Tβ4, native, non-oxidised thymosin β4 prepared from human neutrophils by HPLC, reference compound]”, in assay [1], the “reduction of carrageenan-induced oedema” value is recorded as “only the oxidised peptide significantly reduced”. Further, the “suppression of footpad swelling” value in assay [1] (1000 ng dose) is on record as “ineffective”. Moreover, in the assay on human neutrophils, the “dispersive locomotion of neutrophils” value was “did not give significant dispersive locomotion”. In assay [2], the “chemotactic activity of the substance itself” value is “neither was chemotactic” and the “inhibition of chemotaxis to fMLP” value was “both inhibited”. The “wound healing (closure rate of scratch on endothelial monolayer)” value in assay [3] was “promotes would healing”.
